# Measurements from patent publication US4198506A, “2-Carboxyalkyl-2,3-dihydro-6-mercapto-s-triazolo[4,3-b]-pyridazin-3-ones” (Bristol-Myers Company, priority 1979, dated 1980).
# Like-named read-outs stand apart in the source and are kept apart here.
# Tests used:
# [1] = system: E. coli (sensitive); experiment: In vitro activity (geometric mean MIC, serial dilution); format: cell-based; conditions: Escherichia coli, read-out: Geometric Mean MIC
# [2] = system: Enterobacter (sensitive); experiment: as above; format: cell-based; conditions: 3 strains, Mueller-Hinton agar, inoculum 10^4 dilution, MIC cutoff 200 mcg./ml., read-out: Geometric Mean MIC
# [3] = system: S. aureus penicillinase+); experiment: as above; format: cell-based; conditions: Staphylococcus aureus; 13 strains; Mueller-Hinton agar, inoculum 10^4 dilution; MIC cutoff 200 mcg./ml.; read-out: Geometric Mean MIC
# [4] = system: S. aureus (sensitive); experiment: as above; format: cell-based; conditions: Staphylococcus aureus, read-out: Geometric Mean MIC
# [5] = system: Proteus (indole +, cephalosporinase +); experiment: as above; format: cell-based; conditions: 5 strains; Mueller-Hinton agar, inoculum 10^4 dilution; MIC cutoff 200 mcg./ml.; read-out: Geometric Mean MIC
# [6] = system: Proteus (indole-); experiment: as above; format: cell-based; conditions: read-out: Geometric Mean MIC
# [7] = system: E. coli (Penicillinase +); experiment: as above; format: cell-based; conditions: Escherichia coli; 7 strains; Mueller-Hinton agar, inoculum 10^4 dilution; MIC cutoff 200 mcg./ml.; read-out: Geometric Mean MIC
# [8] = system: Providencia sp.; experiment: as above; format: cell-based; conditions: 5 strains, Mueller-Hinton agar, inoculum 10^4 dilution, MIC cutoff 200 mcg./ml., read-out: Geometric Mean MIC
# [9] = system: Proteus (indole +); experiment: as above; format: cell-based; conditions: read-out: Geometric Mean MIC
# [10] = system: S. aureus (Methicillin-R); experiment: as above; format: cell-based; conditions: Staphylococcus aureus; 15 strains; Mueller-Hinton agar, inoculum 10^4 dilution; MIC cutoff 200 mcg./ml.
# [11] = system: S. aureus Smith; experiment: In vivo activity (Mice, sc); conditions: Staphylococcus aureus, several determinations listed, read-out: PD50
# Excerpt: (§1) |In vivo Activity of BB-[…] and Related Compounds (Mice, sc) | (PD50 (mgm./kg.)
# [12] = system: E. coli Juhl; experiment: In vivo activity (Mice, sc); conditions: Escherichia coli, several determinations listed, read-out: PD50
# Excerpt: as §1
# [13] = system: Miscellaneous (Salmonella, Shigella, Citrobacter); experiment: microbe, parasite or virus in culture; conditions: read-out: Geometric Mean MIC
# [14] = system: S. pyogenes; experiment: In vitro activity (geometric mean MIC, serial dilution); format: cell-based; conditions: Streptococcus pyogenes; 10 strains; Mueller-Hinton agar, inoculum 10^4 dilution; MIC cutoff 200 mcg./ml.
# [15] = system: S. marcescens; experiment: as above; format: cell-based; conditions: Serratia marcescens; 16 strains; Mueller-Hinton agar, inoculum 10^4 dilution; MIC cutoff 200 mcg./ml.; read-out: Geometric Mean MIC
# [16] = system: D. pneumoniae; experiment: as above; format: cell-based; conditions: Streptococcus pneumoniae; 9 strains; Mueller-Hinton agar, inoculum 10^4 dilution; MIC cutoff 200 mcg./ml.
# [17] = system: Enterobacter (Cephalosporinase +); experiment: as above; format: cell-based; conditions: 7 strains, Mueller-Hinton agar, inoculum 10^4 dilution, MIC cutoff 200 mcg./ml.
# [18] = system: Klebsiella sp.; experiment: as above; format: cell-based; conditions: 12 strains, Mueller-Hinton agar, inoculum 10^4 dilution, MIC cutoff 200 mcg./ml., read-out: Geometric Mean MIC
# [19] = system: Serr. marcescens; experiment: In vitro antibacterial activity (Steers' agar dilution MIC); format: cell-based; conditions: Serratia marcescens; table 2 (BB-S493); Serr. marcescens A20019; read-out: MIC
# [20] = system: Pr. mirabilis; experiment: as above; format: cell-based; conditions: Proteus mirabilis, table 2 (BB-S493), read-out: MIC
# [21] = system: S. aureus; experiment: as above; format: cell-based; conditions: Staphylococcus aureus, table 2 (BB-S493)
# Excerpt: (§2) In vitro Antibacterial Activity of BB-S493 Compared with
# (§3) BB-S479 and Cefamandole (Determined by Steers' Agar Dilu-
# (§4) tion Method on Mueller-Hinton Agar Plate)
# (§5) In vitro antibacterial activity of BB-S 525 compared with
# (§6) BB-S 479 and cefamandole (determined by Steers' agar dilution
# (§7) method on Mueller-Hinton agar plate)
# [22] = system: Shig. sonnei; experiment: as above; format: cell-based; conditions: Shigella sonnei, table 2 (BB-S493); Shig. sonnei A9516
# Excerpt: as §2, §3, §4, §5, §6, §7
# [23] = system: Shig. flexneri; experiment: as above; format: cell-based; conditions: Shigella flexneri; table 2 (BB-S493); Shig. flexneri A9684; read-out: MIC
# Excerpt: as §2, §3, §4, §5, §6, §7
# [24] = system: Sal. typhosa; experiment: as above; format: cell-based; conditions: table 2 (BB-S493); Sal. typhosa A9498
# Excerpt: as §2, §3, §4, §5, §6, §7
# [25] = system: E. coli; experiment: as above; format: cell-based; conditions: Escherichia coli, read-out: MIC
# Excerpt: as §2, §3, §4, §5, §6, §7
# [26] = system: Kl. pneumoniae; experiment: as above; format: cell-based; conditions: Klebsiella pneumoniae, table 2 (BB-S493)
# Excerpt: as §2, §3, §4, §5, §6, §7
# [27] = system: Sal. enteritidis; experiment: as above; format: cell-based; conditions: Salmonella enterica, table 2 (BB-S493), Sal. enteritidis A9531
# [28] = system: Ps. aeruginosa; experiment: as above; format: cell-based; conditions: table 2 (BB-S493)
# [29] = system: Enterob. cloacae; experiment: as above; format: cell-based; conditions: table 2 (BB-S493); Enterob. cloacae A9656; read-out: MIC
# [30] = system: Pr. rettgeri; experiment: as above; format: cell-based; conditions: Providencia rettgeri, table 2 (BB-S493); Pr. rettgeri A15167
# [31] = system: B. anthracis; experiment: microbe, parasite or virus in culture; format: cell-based; conditions: Bacillus anthracis, table 2 (BB-S493); B. anthracis A9504
# [32] = system: Shig. dysenteriae; experiment: In vitro antibacterial activity (Steers' agar dilution MIC); format: cell-based; conditions: Shigella dysenteriae, table 2 (BB-S493); Shig dysenteriae
# [33] = system: St. faecalis; experiment: as above; format: cell-based; conditions: Enterococcus faecalis, table 2 (BB-S493); St. faecalis A9536; read-out: MIC
# [34] = system: Pr. vulgaris; experiment: as above; format: cell-based; conditions: Proteus vulgaris, table 2 (BB-S493), read-out: MIC
# [35] = system: Pr. morganii; experiment: as above; format: cell-based; conditions: Morganella morganii, table 2 (BB-S493), read-out: MIC
smiles,measurement,setting,value
"NCc1ccsc1CC(=O)N[C@@H]1C(=O)N2C(C(=O)O)=C(CSc3ccc4nn(CC(=O)O)c(=O)n4n3)CS[C@H]12 [BB-S483, 7-(3-Aminomethyl-2-thienylacetamido)-3-(2-carboxymethyl-2,3-dihydro-s-triazolo[4,3-b]pyridazin-3-on-6-ylthiomethyl)-3-cephem-4-carboxylic Acid]",MIC,[1],0.3 µg/mL
same,MIC,[2],1.3 µg/mL
same,MIC,[3],1.1 µg/mL
same,MIC,[4],0.3 µg/mL
same,MIC,[5],17 µg/mL
same,MIC,[6],0.7 µg/mL
same,MIC,[7],21 µg/mL
same,MIC,[8],2.1 µg/mL
same,MIC,[9],0.4 µg/mL
same,MIC,[10],48 µg/mL
same,ED50,[11],0.34 mg/kg
same,ED50,[12],0.15 mg/kg
same,MIC,[13],0.9 µg/mL
same,MIC,[14],0.08 µg/mL
same,MIC,[15],81 µg/mL
same,MIC,[16],0.04 µg/mL
same,MIC,[17],5.2 µg/mL
same,MIC,[18],1.1 µg/mL
"NCC1=C(CC(=O)N[C@@H]2C(=O)N3C(C(=O)O)=C(CSc4ccc5nn(CC(=O)O)c(=O)n5n4)CS[C@H]23)CC=CC1 [BB-S493, 7-[(2-Aminomethyl-1,4-cyclohexadienyl)acetamido]3-(2-N-carboxymethyl-s-triazolo[4,5-b]pyridazin-3-on-6-ylthiomethyl)-3-cephem-4-carboxylic Acid]",MIC,[19],100 µg/mL
same,MIC,[20]; Pr. mirabilis A9554,0.2 µg/mL
same,MIC,[20]; Pr. mirabilis A9900,0.2 µg/mL
same,MIC,[21]; S. aureus A9497,0.2 µg/mL
same,MIC,[21]; S. aureus BX-1633 A9606,0.4 µg/mL
same,MIC,[21]; S. aureus Smith A9537,0.4 µg/mL
same,MIC,[22],0.05 µg/mL
same,MIC,[23],25 µg/mL
same,MIC,[24],0.1 µg/mL
same,MIC,"[25]; ATCC8739, table 2 (BB-S493), E. coli ATCC 8739",0.2 µg/mL
same,MIC,"[25]; table 2 (BB-S493), E. coli A9660",0.1 µg/mL
same,MIC,"[25]; table 2 (BB-S493), E. coli A15147",6.3 µg/mL
same,MIC,"[25]; table 2 (BB-S493), E. coli A15810",0.2 µg/mL
same,MIC,"[25]; table 2 (BB-S493), E. coli BX-1373",0.4 µg/mL
same,MIC,"[25]; table 2 (BB-S493), E. coli Juhl A15119",0.2 µg/mL
same,MIC,"[25]; table 2 (BB-S493), E. coli NIHJ",0.1 µg/mL
same,MIC,[26]; Kl. pneumoniae A9678,0.4 µg/mL
same,MIC,[26]; Kl. pneumoniae A9867,0.2 µg/mL
same,MIC,[26]; Kl. pneumoniae A9977,0.2 µg/mL
same,MIC,[26]; Kl. pneumoniae A15130,0.2 µg/mL
same,ED50,[11],0.29 mg/kg
same,ED50,[12],0.27 mg/kg
same,MIC,[27],0.1 µg/mL
same,MIC,"[28]; Pseudomonas aeruginosa, Ps. aeruginosa A9843, read-out: MIC",> 100 µg/mL
same,MIC,[28]; Ps. aerugionsa A9930,> 100 µg/mL
same,MIC,[29],6.3 µg/mL
same,MIC,[30],0.1 µg/mL
same,MIC,[31],0.0125 µg/mL
same,MIC,[32],0.05 µg/mL
same,MIC,[33],100 µg/mL
same,MIC,[34]; Pr. vulgaris A9436,0.4 µg/mL
same,MIC,[34]; Pr. vulgaris A9699,6.3 µg/mL
same,MIC,[35]; Pr. morganii A9553,> 100 µg/mL
same,MIC,[35]; Pr. morganii A20031,0.4 µg/mL
